Assay results taken from patent US20070081948A1, “Dry powder composition comprising a benzodiazepine for pulmonary inhalation” (Vectura Limited, priority 2003, published 2007).

Experiment: Emitted 6.8 micron particle fraction from vortex chamber versus ratio of chamber diameter to exit port diameter
Assay type: physicochemical
Details: for Normalised average particle fraction <6.8 μm (%): emitted fraction divided by fraction of the loaded powder
From the text: The normalised average 6.8 micron particle fraction is the emitted 6.8 micron particle fraction divided by the 6.8 micron particle fraction of the powdered medicament loaded into the inhaler. The medicament used was pure Intal™ sodium cromoglycate (Fisons UK).

Average particle fraction <6.8 μm (%) (Ratio D/De 2.0): 64.7% | Normalised average particle fraction <6.8 μm (%) (Ratio D/De 2.0): 73.1% | Average particle fraction <6.8 μm (%) (Ratio D/De 3.1): 70.8% | Normalised average particle fraction <6.8 μm (%) (Ratio D/De 3.1): 79.9% | Average particle fraction <6.8 μm (%) (Ratio D/De 4.0): 75.5% | Normalised average particle fraction <6.8 μm (%) (Ratio D/De 4.0): 85.2% | Average particle fraction <6.8 μm (%) (Ratio D/De 6.0): 81.0% | Normalised average particle fraction <6.8 μm (%) (Ratio D/De 6.0): 91.4% | Average particle fraction <6.8 μm (%) (Ratio D/De 7.1): 83.5% | Normalised average particle fraction <6.8 μm (%) (Ratio D/De 7.1): 94.3% | Average particle fraction <6.8 μm (%) (Ratio D/De 8.0): 83.2% | Normalised average particle fraction <6.8 μm (%) (Ratio D/De 8.0): 93.9% | Average particle fraction <6.8 μm (%) (Ratio D/De 8.6): 80.6% | Normalised average particle fraction <6.8 μm (%) (Ratio D/De 8.6): 91.0%
Compound: O=C(O)c1cc(=O)c2c(OCC(O)COc3cccc4oc(C(=O)O)cc(=O)c34)cccc2o1 [sodium cromoglycate]
